Source: publication PMC10654507, “A cleavable chimeric peptide with targeting and killing domains enhances LPS neutralization and antibacterial properties against multi-drug resistant E. coli” (Communications Biology, 2023)
Residues, ends and D or L forms follow the SMILES beside them.

Columns and labels:
[1] = test system: MDR E. coli CVCC195; experiment: Infiltrated inflammatory cells in lung sections, E. coli-challenged mice; type: in vivo, mouse; details: Fig. 6c source data, peptide + E. coli, mean
Experimental: Fig. 6 Effects of cleavable chimeric peptide R7 on lung injury in mice. […] Lung injury was analyzed histologically at 12 h or 24 h. a Histopathological images of lung sections after staining with hematoxylin and eosin (H&E). Images are presented at a magnification of 100×. b Pathological analysis of lung. Lung injury involves in inflammation (such as peribronchial, perivascular, intrabronchial, and pulmonary interstitial one), bronchial exudate, and alveolar septal thickening, respectively. The specific degree of lung injury of each mouse is assessed by Score 0 (asymptomatic), Score 1 (mild), Score 2 (moderate), and Score 3 (severe), respectively. c The number of counted infiltrated inflammatory cells within processed lung sections from a. Data represent the mean ± SD of three independent experiments. Different lower-case letters indicate a significant difference between the two groups (p < 0.05).
Lung tissues were taken at 12 h and 24 h, respectively, washed with PBS, and fixed in 4% paraformaldehyde overnight. After dehydration in different concentrations of ethanol (including 75%, 85%, 90%, and 95%, respectively), the tissues were embedded in paraffin, sliced, and stained with hematoxylin. Observation was performed under a light microscope. The mice only injected with E. coli, LPS or PBS was regard as the negative or blank control.

[2] = test system: MDR E. coli; experiment: Antibacterial activity after incubation in human serum (inhibition assay); type: cell-based, Escherichia coli; details: Supplementary Fig. 2c source data, mean
Experimental: Serum stability of R7 and its parent-L7 was tested as previously described with minor modifications[46],[53]. […] The samples were incubated at 4 °C for 15 min and centrifuged for 10 min at 12,000 rpm. The supernatants were analyzed by RP-HPLC or inhibition zone method. Moreover, after incubation in serum for 2 h, R7 was analyzed by matrix assisted laser desorption/ionization-time of flight mass spectrometry (MALDI-TOF MS) and high-performance liquid chromatography-mass spectrometry (HPLC-MS), respectively.
Supplementary Figure 2. Serum stability and release of peptides in human serum. a Detection of the peak area change of peptides in serum by RP-HPLC. b The remaining rate of peptides in bovine serum. c The antibacterial activity of peptides against MDR E. coli in serum detected by an inhibition assay. d The MALDI-TOF mass spectrometry of R7 after incubation in bovine serum for 2 h. The experiments were repeated three times. Data in a and d is representative of three biological replicates.
The results are given as the mean ± SD of three independent experiments in b and c. Different lower-case letters indicate a significant difference between the two groups (p<0.05).
(1 picture or pasted object on this page, not shown here)

[3] = in vitro; type: in vitro ADME
[4] = Serum stability in mouse serum (RP-HPLC); type: in vitro ADME; details: 25% mouse serum
Experimental: Serum stability of R7 and its parent-L7 was tested as previously described with minor modifications[46],[53]. Briefly, each peptide was added to the 25% mouse serum to a final concentration of 0.5 mM; 250 µL aliquots of samples were taken at 0, 0.5, 1, 2, 4 and 8 h, and mixed with 20 µL 15% trichloroacetic acid (TCA). The samples were incubated at 4 °C for 15 min and centrifuged for 10 min at 12,000 rpm. The supernatants were analyzed by RP-HPLC or inhibition zone method. Moreover, after incubation in serum for 2 h, R7 was analyzed by matrix assisted laser desorption/ionization-time of flight mass spectrometry (MALDI-TOF MS) and high-performance liquid chromatography-mass spectrometry (HPLC-MS), respectively.

[5] = test system: E. coli 0111: B4 LPS; experiment: BC (BODIPY-TR-cadaverine) displacement assay, binding to LPS; set-up: species or system Escherichia coli; unit not given here; details: Fig. 4a source data, mean
Experimental: The binding of peptides to LPS was determined according to the method described previously[34],[59]. In brief, E. coli 0111: B4 LPS (40 μg/mL) and BODIPY-TR-cadaverine (BC) (10 μM) were mixed in 50 mM Tris buffer (pH = 7.4) in equal proportions and added to a 96-well black plate (180 μL/well) in the dark. Different concentrations of chimeric peptide R7 and its parental (20 μL) were added into each well and detected by a fluorescence spectrophotometry at room temperature (excitation wavelength 580 nm, emission wavelength 620 nm). The change in relative fluorescence was recorded and the BC displacement rate was calculated. Polymycin B (PMB) was used as the positive control.

[6] = test system: LPS; experiment: Mouse survival, preventive treatment before lethal LPS challenge; type: in vivo; set-up: key to survival of mice, single-animal event: 1 represents a mouse death; 0 represents no death; details: for survival of mice, single-animal event: Fig. 7a source data, LPS challenge
Experimental: A sepsis mouse model established in our laboratory was used to evaluate the prevention effect of peptides. […] The survival rate of mice was recorded for 7 days. The mice injected with saline were used as negative control.

[7] = test system: MDR E. coli CVCC195; experiment: Serum cytokines (TNF-α, IL-6, IL-1β, IL-10; ELISA) in E. coli-challenged mice; type: in vivo, mouse; set-up: unit not given beside the values; details: Fig. 5c-f source data, peptide + E. coli challenged mice, mean
Experimental: After E. coli or LPS challenge, the mice were sacrificed at 12 h and 24 h, respectively, and the sera were collected to detect inflammatory cytokines (such as tumor necrosis factor-α (TNF-α), interleukin-6 (IL-6), interleukin-1β (IL-1β), and interleukin-10 (IL-10)) using the enzyme linked immunosorbent assay (ELISA) kits. To evaluate the specific activity of intestinal alkaline phosphatase (IAP), a 2 cm segment of duodenum was rapidly intercepted from the mice and homogenized; the IAP levels in the supernatant were detected by ELISA. In addition, the lungs were collected from the mice infected by E. coli after 12 and 24 h, respectively and were homogenized in sterile PBS for the bacterial counts assay.

CSCC[C@H](NC(=O)[C@H](CCCNC(=N)N)NC(=O)[C@H](Cc1c[nH]c2ccccc12)NC(=O)[C@H](C)NC(=O)[C@H](Cc1c[nH]c2ccccc12)NC(=O)[C@H](CCCNC(=N)N)NC(=O)[C@H](Cc1c[nH]c2ccccc12)NC(=O)[C@H](C)NC(=O)[C@H](CCCCN)NC(=O)[C@H](Cc1ccccc1)NC(=O)[C@H](CCCNC(=N)N)NC(=O)[C@H](CCCNC(=N)N)NC(=O)[C@H](CCCCN)NC(=O)[C@H](CCCNC(=N)N)NC(=O)[C@H](CCCCN)NC(=O)[C@H](Cc1ccccc1)NC(=O)[C@H](Cc1ccccc1)NC(=O)[C@H](CO)NC(=O)[C@H](C)NC(=O)[C@H](CCCNC(=N)N)NC(=O)[C@@H](NC(=O)[C@H](CCCCN)NC(=O)[C@H](Cc1c[nH]c2ccccc12)NC(=O)[C@H](CCCNC(=N)N)NC(=O)CNC(=O)[C@H](CCC(N)=O)NC(=O)[C@@H](NC(=O)[C@@H](N)CCCNC(=N)N)C(C)C)C(C)C)C(=O)N[C@@H](CCCCN)C(=O)N[C@@H](CCCCN)C(=O)N[C@@H](CC(C)C)C(=O)N[C@@H](C)C(=O)N[C@@H](C)C(=O)N1CCC[C@H]1C(=O)N[C@@H](CO)C(=O)O [R7] (H-RVQGRWKVRASFFKRKRRFKAWRWAWRMKKLAAPS-OH)
number of counted infiltrated inflammatory cells ([1]; 12 h): 14.3787
number of counted infiltrated inflammatory cells ([1]; 24 h): 11.7743
antibacterial activity against MDR E. coli in human serum detected by an inhibition assay ([2]; incubation in human serum 0 h): 0.8933
antibacterial activity against MDR E. coli in human serum detected by an inhibition assay ([2]; incubation in human serum 0.5 h): 0.91
antibacterial activity against MDR E. coli in human serum detected by an inhibition assay ([2]; incubation in human serum 1 h): 0.91
antibacterial activity against MDR E. coli in human serum detected by an inhibition assay ([2]; incubation in human serum 2 h): 0.8967
antibacterial activity against MDR E. coli in human serum detected by an inhibition assay ([2]; incubation in human serum 4 h): 0.9033
antibacterial activity against MDR E. coli in human serum detected by an inhibition assay ([2]; incubation in human serum 8 h): 0.8967
degradation in human serum ([3]; RP-HPLC (Supplementary Fig. 2)): almost identical to those in mouse serum
remaining at 0.5 h, 0.5 mM ([3]; Supplementary Fig. 2b source data, human serum, 0.5 h, RP-HPLC, mean, read-out: remaining rate in human serum): 58.6%
remaining at 1 h, 0.5 mM ([3]; Supplementary Fig. 2b source data, human serum, 1 h, RP-HPLC, mean, read-out: remaining rate in human serum): 51.9%
remaining at 2 h, 0.5 mM ([3]; Supplementary Fig. 2b source data, human serum, 2 h, RP-HPLC, mean, read-out: remaining rate in human serum): 45.6%
remaining at 4 h, 0.5 mM ([3]; Supplementary Fig. 2b source data, human serum, 4 h, RP-HPLC, mean, read-out: remaining rate in human serum): 23%
remaining at 0.5 h, 0.5 mM ([4]; peptide 0.5 mM, 0.5 h, mean of three, read-out: remaining rate in mouse serum): 101%
remaining at 1 h, 0.5 mM ([4]; peptide 0.5 mM, 1 h, mean of three, read-out: remaining rate in mouse serum): 81.6%
remaining at 2 h, 0.5 mM ([4]; peptide 0.5 mM, 2 h, mean of three, read-out: remaining rate in mouse serum): 29.8%
remaining at 4 h, 0.5 mM ([4]; peptide 0.5 mM, 4 h, mean of three, read-out: remaining rate in mouse serum): 21.2%
remaining rate in mouse serum ([4]; peptide 0.5 mM, 8 h, mean of three): ~ 20%
remaining at 8 h, 0.5 mM ([4]; peptide 0.5 mM, 8 h, mean of three, read-out: remaining rate in mouse serum): 21.7%
peptide remained intact in mouse serum ([4]; range from 2 h to 8 h of incubation): 29.8 ~ 21.7%
binding affinity to LPS ([5]; peptide concentration 0.05 μM): 20.2273
binding affinity to LPS ([5]; peptide concentration 0.1 μM): 21.6184
binding affinity to LPS ([5]; peptide concentration 0.5 μM): 51.5852
binding affinity to LPS ([5]; peptide concentration 1 μM): 77.8834
binding affinity to LPS ([5]; peptide concentration 5 μM): 85.6571
binding affinity to LPS ([5]; peptide concentration 10 μM): 94.6127
binding affinity to LPS ([5]; peptide concentration 50 μM): 98.4665
binding affinity to LPS ([5]; peptide concentration 100 μM): 96.0469
mouse survival at 7 days ([6]; 7 μmol/kg i.p. at 0 h, LPS 13.5 mg/kg i.p. at 6 h, five mice/group): 100%
survival of mice, single-animal event ([6]; event at day 2, one cell per mouse): 0
survival of mice, single-animal event ([6]; event at day 7, one cell per entry): 0
TNFα ([7]; 12 h): 51.956
TNFα ([7]; 24 h): 49.098
